molecular target: T1, recombinant CETP (rCETP) (Homo sapiens, UniProt P11597); experiment: RTA assay using recombinant CETP (2% RTA); type: biochemical; conditions: RTA assay in 2% human serum; read-out: IC50
T1 sequence (P11597 18-493): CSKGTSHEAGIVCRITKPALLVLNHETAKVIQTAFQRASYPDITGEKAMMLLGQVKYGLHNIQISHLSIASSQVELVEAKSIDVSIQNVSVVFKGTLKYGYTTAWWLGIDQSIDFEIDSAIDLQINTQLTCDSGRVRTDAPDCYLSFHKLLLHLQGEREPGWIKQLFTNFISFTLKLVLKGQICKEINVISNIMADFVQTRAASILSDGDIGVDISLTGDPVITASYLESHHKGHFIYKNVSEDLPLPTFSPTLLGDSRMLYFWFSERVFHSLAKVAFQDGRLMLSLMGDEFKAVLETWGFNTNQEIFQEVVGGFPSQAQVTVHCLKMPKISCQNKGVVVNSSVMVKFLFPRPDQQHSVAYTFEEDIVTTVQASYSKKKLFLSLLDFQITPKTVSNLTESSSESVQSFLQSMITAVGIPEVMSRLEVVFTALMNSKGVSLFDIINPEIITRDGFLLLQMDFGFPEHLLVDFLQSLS
Method in brief: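 Compounds preincubated 1 h at 37 °C with assay cocktail (CETP buffer: 50 mM Tris pH 7.4, 100 mM NaCl, 1 mM EDTA; human HDL acceptor); transfer started with [3H]cholesteryl oleate- or [3H]triolein-labelled LDL, 60 min at 37 °C. LDL PEG-precipitated; supernatant counted by scintillation, blank-corrected; IC50 from 4-parameter sigmoidal fit of % inhibition vs DMSO control.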

`COc1ccc(-c2ccc(C(=O)O)nc2)cc1-c1ccc(N2CCC2)nc1CN1C(=O)O[C@H](c2cc(C(F)(F)F)cc(C(F)(F)F)c2)[C@@H]1C` [Example 120] and `COc1ccc(-c2ccc(C(=O)O)cn2)cc1-c1ccc(N2CCC2)nc1CN1C(=O)O[C@H](c2cc(C(F)(F)F)cc(C(F)(F)F)c2)[C@@H]1C` [Example 121] are within 1.5-fold of each other in IC50: 33 nM for the first, 28 nM for the second.

Compared with `COc1ccc(CC(C)(C)C(=O)O)cc1-c1ccc(N2CCC2)nc1CN1C(=O)O[C@H](c2cc(C(F)(F)F)cc(C(F)(F)F)c2)[C@@H]1C` [Example 122, 3-{3-[6-Azetidin-1-yl-2-({(4S,5R)-5-[3,5-bis(trifluoromethyl)phenyl]-4-methyl-2-oxo-1,3-oxazolidin-3-yl}methyl)pyridin-3-yl]-4-methoxyphenyl}-2,2-dimethylpropanoic acid], `COc1ccc(CC(C)(C)C(=O)O)cc1-c1cnc(N2CCC2)nc1CN1C(=O)O[C@H](c2cc(C(F)(F)F)cc(C(F)(F)F)c2)[C@@H]1C` [Example 156] is 2.8-fold higher in IC50: 15 nM for the first, 42 nM for the second. The first is the more potent here.

Going from `CCOC(=O)[C@@H]1CC1c1ccc(OC)c(-c2cnc(N3CCC3)nc2CN2C(=O)O[C@H](c3cc(C(F)(F)F)cc(C(F)(F)F)c3)[C@@H]2C)c1` (stereo partly shown) [Example 124] to `COc1ccc(C2C[C@H]2C(=O)O)cc1-c1cnc(N2CCC2)nc1CN1C(=O)O[C@H](c2cc(C(F)(F)F)cc(C(F)(F)F)c2)[C@@H]1C` (stereo partly shown) [Example 153], the IC50 rises from 33 nM to 53 nM (1.6-fold). The first is the more potent here.

First: COc1ccc([C@H]2CC[C@H](C(=O)OC)CC2)cc1-c1cnc(N2CCC2)nc1CN1C(=O)O[C@H](c2cc(C(F)(F)F)cc(C(F)(F)F)c2)[C@@H]1C [Example 125]
Second: COc1ccc([C@H]2CC[C@H](C(=O)O)CC2)cc1-c1cnc(N2CCC2)nc1CN1C(=O)O[C@H](c2cc(C(F)(F)F)cc(C(F)(F)F)c2)[C@@H]1C [Example 154]
The IC50 of the first is 2.2-fold higher: 60 nM for the first, 27 nM for the second. The second is the more potent here.

First: CCOC(=O)C[C@@H]1CCc2cc(OC)c(-c3cnc(N4CCC4)nc3CN3C(=O)O[C@H](c4cc(C(F)(F)F)cc(C(F)(F)F)c4)[C@@H]3C)cc21 [Example 126]
Second: COc1cc2c(cc1-c1cnc(N3CCC3)nc1CN1C(=O)O[C@H](c3cc(C(F)(F)F)cc(C(F)(F)F)c3)[C@@H]1C)[C@H](CC(=O)O)CC2 [Example 155]
The IC50 of the first is 3.4-fold higher: 134 nM for the first, 40 nM for the second.

Going from `COc1ccc(CC(C)(C)C(=O)OC(C)(C)C)cc1-c1cnc(N2CCC2)nc1CN1C(=O)O[C@H](c2cc(C(F)(F)F)cc(C(F)(F)F)c2)[C@@H]1C` [Example 127] to `COC(=O)CC(C)(C)c1ccc(OC)c(-c2cnc(N3CCC3)nc2CN2C(=O)O[C@H](c3cc(C(F)(F)F)cc(C(F)(F)F)c3)[C@@H]2C)c1` [Example 145], the IC50 falls from 114 nM to 16 nM (7.1-fold). The second is the more potent here.

Compared with `COc1ccc([C@H]2CC[C@H](C(=O)OC)CC2)cc1-c1cnc(N2CC(F)(F)C2)nc1CN1C(=O)O[C@H](c2cc(C(F)(F)F)cc(C(F)(F)F)c2)[C@@H]1C` [Example 128], `COc1ccc([C@H]2CC[C@H](C(=O)O)CC2)cc1-c1cnc(N2CC(F)(F)C2)nc1CN1C(=O)O[C@H](c2cc(C(F)(F)F)cc(C(F)(F)F)c2)[C@@H]1C` [Example 157] is 110-fold lower in IC50: 1080 nM for the first, 10 nM for the second.

`CCOC(=O)[C@@H]1CC1c1ccc(OC)c(-c2cnc(N3CC(F)(F)C3)nc2CN2C(=O)O[C@H](c3cc(C(F)(F)F)cc(C(F)(F)F)c3)[C@@H]2C)c1` (stereo partly shown) [Example 129] and `COc1ccc(C2C[C@H]2C(=O)O)cc1-c1cnc(N2CC(F)(F)C2)nc1CN1C(=O)O[C@H](c2cc(C(F)(F)F)cc(C(F)(F)F)c2)[C@@H]1C` (stereo partly shown) [Example 158] are within 1.5-fold of each other in IC50: 18 nM for the first, 21 nM for the second.

First: CCOC(=O)C[C@@H]1CCc2cc(OC)c(-c3cnc(N4CC(F)(F)C4)nc3CN3C(=O)O[C@H](c4cc(C(F)(F)F)cc(C(F)(F)F)c4)[C@@H]3C)cc21 [Example 130]
Second: COC(=O)CCc1ccc(OC)c(-c2cnc(N3CC(F)(F)C3)nc2CN2C(=O)O[C@H](c3cc(C(F)(F)F)cc(C(F)(F)F)c3)[C@@H]2C)c1 [Example 144]
The IC50 of the first is 1.9-fold higher: 32 nM for the first, 17 nM for the second.

Going from `COC(=O)c1ccc(-c2ccc(OC)c(-c3cnc(N4CC(F)(F)C4)nc3CN3C(=O)O[C@H](c4cc(C(F)(F)F)cc(C(F)(F)F)c4)[C@@H]3C)c2)c(C)c1` [Example 131] to `CCc1ccc(-c2ccc(C(=O)OC)cc2C)cc1-c1cnc(N2CC(F)(F)C2)nc1CN1C(=O)O[C@H](c2cc(C(F)(F)F)cc(C(F)(F)F)c2)[C@@H]1C` [Example 133], the IC50 rises from 10 nM to 39 nM (3.9-fold). The first is the more potent here.

First: COC(=O)c1ccc(-c2cc(-c3cnc(N4CC(F)(F)C4)nc3CN3C(=O)O[C@H](c4cc(C(F)(F)F)cc(C(F)(F)F)c4)[C@@H]3C)c(OC)cc2F)c(C)c1 [Example 132]
Second: COC(=O)c1ccc(-c2cc(-c3cnc(N4CC(OC)C4)nc3CN3C(=O)O[C@H](c4cc(C(F)(F)F)cc(C(F)(F)F)c4)[C@@H]3C)c(OC)cc2F)c(C)c1 [Example 136]
The IC50 of the first is 14-fold lower: 4 nM for the first, 55 nM for the second.

First: COC(=O)c1ccc(-c2ccc(OC)c(-c3cnc(N4CC(OC)C4)nc3CN3C(=O)O[C@H](c4cc(C(F)(F)F)cc(C(F)(F)F)c4)[C@@H]3C)c2)c(C)c1 [Example 135]
Second: CCc1ccc(-c2ccc(C(=O)OC)cc2C)cc1-c1cnc(N2CC(OC)C2)nc1CN1C(=O)O[C@H](c2cc(C(F)(F)F)cc(C(F)(F)F)c2)[C@@H]1C [Example 137]
The IC50 of the first is 6.8-fold lower: 89 nM for the first, 605 nM for the second.

First: COC(=O)[C@H]1CC[C@H](c2ccc(Cl)c(-c3cnc(N4CC(OC)C4)nc3CN3C(=O)O[C@H](c4cc(C(F)(F)F)cc(C(F)(F)F)c4)[C@@H]3C)c2)CC1 [Example 138]
Second: COC(=O)[C@H]1CC[C@H](c2ccc(Cl)c(-c3cnc(N4CCC4)nc3CN3C(=O)O[C@H](c4cc(C(F)(F)F)cc(C(F)(F)F)c4)[C@@H]3C)c2)CC1 [Example 146]
The IC50 of the first is 13-fold higher: 2030 nM for the first, 160 nM for the second. The second is the more potent here.

First: COC(=O)CCc1ccc(OC)c(-c2c(C)nc(N3CC(F)(F)C3)nc2CN2C(=O)O[C@H](c3cc(C(F)(F)F)cc(C(F)(F)F)c3)[C@@H]2C)c1 [Example 139, Methyl 3-{3-[4-({(4S,5R)-5-[3,5-bis(trifluoromethyl)phenyl]-4-methyl-2-oxo-1,3-oxazolidin-3-yl}methyl)-2-(3,3-difluoroazetidin-1-yl)-6-methylpyrimidin-5-yl]-4-methoxyphenyl}propanoate]
Second: COC(=O)CCc1ccc(OC)c(-c2cnc(N3CC(F)C3)nc2CN2C(=O)O[C@H](c3cc(C(F)(F)F)cc(C(F)(F)F)c3)[C@@H]2C)c1 [Example 143]
The IC50 of the first is 1.9-fold higher: 13 nM for the first, 7 nM for the second.

Going from `COC(=O)CCc1ccc(OC)c(-c2cnc(N3CC(OC)C3)nc2CN2C(=O)O[C@H](c3cc(C(F)(F)F)cc(C(F)(F)F)c3)[C@@H]2C)c1` [Example 140, Methyl 3-{3-[4-({(4S,5R)-5-[3,5-bis(trifluoromethyl)phenyl]-4-methyl-2-oxo-1,3-oxazolidin-3-yl}methyl)-2-(3-methoxyazetidin-1-yl)pyrimidin-5-yl]-4-methoxyphenyl}propanoate] to `COc1cc(F)c(-c2ccc(C(=O)O)cc2C)cc1-c1cnc(N2CC(F)C2)nc1CN1C(=O)O[C@H](c2cc(C(F)(F)F)cc(C(F)(F)F)c2)[C@@H]1C` [Example 152, 5′-[4-({(4S,5R)-5-[3,5-bis(trifluoromethyl)phenyl]-4-methyl-2-oxo-1,3-oxazolidin-3-yl}methyl)-2-(3-fluoroazetidin-1-yl)pyrimidin-5-yl]-2′-fluoro-4′-methoxy-2-methylbiphen-4-carboxylic acid], the IC50 falls from 344 nM to 10 nM (34-fold).

In the case of `COC(=O)[C@H]1CC[C@H](c2ccc(Cl)c(-c3cnc(N4CC(F)(F)C4)nc3CN3C(=O)O[C@H](c4cc(C(F)(F)F)cc(C(F)(F)F)c4)[C@@H]3C)c2)CC1` [Example 147], the IC50 is reported as 94 nM.
